In brackets after ≈: the same amount, converted by molar mass. Where a SMILES comes first, the peptide text is derived from it. [ ]: non-standard residue; d: D form. The star is where a group is joined. Sta = CC(C)C[C@H](N)[C@@H](O)CC(=O)O; Isovaleryl = CC(C)CC(=O)*
Experiments:
[1] = system: T. interdigitale NCPF0335; format: cell-based; settings: for effect of protease inhibitor alone on growth: 1 mM PMSF, 1 mg/L Pepstatin A, 10 µM E-64; for effect of protease inhibitor alone on growth / growth inhibition by protease inhibitor alone: 100 µM EDTA; for growth inhibition by protease inhibitor alone: RPMI-1640, 1 mg/L PMSF, 10 µM E64, 1 mg/L pepstatin
Experimental: (§1) Antifungal susceptibility testing to determine the MIC was conducted by the broth microdilution procedure for filamentous fungi (M38-A2) (Clinical & Laboratory Standards Institute (CLSI). 2008. Reference Method for Broth Dilution Antifungal Susceptibility Testing of Filamentous Fungi; Approved Standard - Second Edition (M38-A2). Clinical and Laboratory Standards Institute, Wayne, PA). This experiment was carried out in triplicate with triplicate samples in each experiment. The proteolytic stability of NP213 was assessed by determining NP213 MIC as described above versus T. rubrum NCPF0118 and T. interdigitale NCPF0335 in the presence of the following protease inhibitors; serine proteases (1 mM phenylmethylsulfonyl fluoride; PMSF), metalloproteases (100 µM ethylenediaminetetraacetic acid; EDTA), aspartyl proteases (1 mg/L Pepstatin A) and cysteine proteases (10 µM trans-epoxysuccinyl-L-leucylamido(4-guanidino)butane; E-64).
(§2) T. rubrum NCPF0118 and T. interdigitale NCPF0335 in RPMI-1640 liquid medium. MIC was determined by the broth microdilution procedure (CLSI, 2008). Metalloprotease inhibitor -100 µM EDTA; Serine protease inhibitor - 1 mg/L PMSF; Cysteine protease inhibitor -10 µM E64; Aspartyl protease inhibitor - 1 mg/L pepstatin.
(§3) Antifungal susceptibility testing was conducted by the broth microdilution procedure as described in CLSI Approved Standard M38-A2. All peptides were dissolved in sterile deionised water (40 mg/ml) and stored at -20° C. until required. All experiments were carried out in triplicate, with triplicate samples in each experiment.

T. rubrum NCPF0118 [2] = format: cell-based, Trichophyton rubrum; settings: for effect of protease inhibitor alone on growth: 1 mM PMSF, 1 mg/L Pepstatin A, 10 µM E-64; for effect of protease inhibitor alone on growth / growth inhibition by protease inhibitor alone: 100 µM EDTA; for growth inhibition by protease inhibitor alone: RPMI-1640, 1 mg/L PMSF, 10 µM E64, 1 mg/L pepstatin
Experimental: as §1, §2, §3

[3] = system: T. rubrum NCPF0118 and T. interdigitale NCPF0335; experiment: Antifungal susceptibility testing, summary statements for both dermatophytes; format: cell-based; settings: Example 4 summary
Experimental: as §1
Antifungal susceptibility testing was carried out as described above, but with the following modifications. RPMI-1640 medium was substituted for 0.5% (w/v) powdered nail, skin keratin or sheep’s wool keratin suspensions in 10 mM sodium phosphate buffer, pH 7.0 containing 0.0025% (w/v) AlamarBlue™ (ThermoFisher Scientific, UK). […]

T. rubrum NCPF0118 [4] = experiment: Metabolic activity (Alamar blue) of T. rubrum exposed to NP213 in dried nail lacquers or PEG4000 formulation; format: cell-based, Trichophyton rubrum
Experimental: NP213 (5 and 10% w/v) was formulated in 50% (v/v) PEG4000. Alternatively, NP213 was dissolved/suspended in the lacquer formulations at concentrations of 0, 5 or 10 % (w/v). 10 µl of each lacquer was applied to the base of a well in a flat-bottomed 96-well plate in triplicate wells and allowed to dry for 90 min. An inoculum of 3 × 10^3 cfu T. rubrum NCPF0118 was prepared in 1 × RPMI-1640 liquid medium and 200 µl was added to all wells containing lacquers and control wells containing no lacquer (growth control). An additional 3 wells per plate contained 200 µl RPMI-1640 liquid medium without inoculum to serve as sterility controls. To each well was added a minimal volume of Alamar blue solution (0.0025% (w/v) final concentration). Antifungal activity was determined based on changes in metabolic activity (due to metabolism of the cell viability indicator Alamar blue). Metabolic activity was monitored by fluorescence (Ex 530 nm/Em 590 nm) every 24 h for up to 168 h.

[5] = system: Trichophyton rubrum NCPF0118; experiment: Experimental model of dermatophyte nail infection on human nail fragments, colony counts; format: cell-based; settings: daily application to dorsal side of infected nail; FIG. 15
Experimental: An experimental model of dermatophyte nail infection was optimized to simulate onychomycosis under laboratory conditions and to test the antifungal efficacy of NP213. As an inert support and to provide a moist atmosphere, sterile water agar plates were prepared in 90-mm Petri dishes (1.5% (w/v) agar in sterile-deionised water). Petri dishes were divided into three sections, and individual pieces of sterile silicone rubber tubing (1-cm diameter; 3-mm height) were placed in each section, allowing the investigation of three nail fragments per plate. This prevented direct contact between the nails and the agar surface or the lid of the Petri dish. Such a setup was necessary because agar contains components that can bind to cationic peptides, including NP213, inhibiting their diffusion and reducing activity. Silicon tubing is permeable to oxygen and carbon dioxide, and its use ensured oxygen access to support fungal growth. Its diameter was sufficiently small to stably support the nail fragments. Uninfected human nails (sourced under ethical approval) were cleaned of all residual skin and debris before cutting to size (approximately four fragments were obtained from an adult great toenail), and their surface area and thickness were determined using a micrometer. […] Samples were plated on potato dextrose agar and incubated at 30° C. for 14 days, and the colonies were counted.

| SMILES | effect of protease inhibitor alone on growth [1] | growth inhibition by protease inhibitor alone [1] | effect of protease inhibitor alone on growth (T. rubrum NCPF0118 [2]) | growth inhibition by protease inhibitor alone (T. rubrum NCPF0118 [2]) | MIC (mg/L) T. interdigitale NPCF0335 [1] [mg/L] | MIC (mg/L) T.rubrum NCPF0118 (T. rubrum NCPF0118 [2]) [mg/L] | also measured |
| --- | --- | --- | --- | --- | --- | --- | --- |
| CC(C)C[C@H](NC(=O)[C@H]1O[C@@H]1C(=O)O)C(=O)NCCCCN=C(N)N (relative stereo) [Peptide E-64, trans-epoxysuccinyl-L-leucylamido(4-guanidino)butane] | no effect on the growth | did not inhibit growth | no effect on the growth | did not inhibit growth | – | – | – |
| CC(C)C[C@H](NC(=O)[C@@H](O)[C@H](N)Cc1ccccc1)C(=O)O [Bestatin] | – | – | – | – | – | – | effect of metalloprotease inhibitor on the anti-fungal effect of the cyclic peptide [3]: enhanced |
| O=C(O)CN(CCN(CC(=O)O)CC(=O)O)CC(=O)O [EDTA, ethylenediaminetetraacetic acid] | no effect on the growth | did not inhibit growth | no effect on the growth | did not inhibit growth | – | – | effect of metalloprotease inhibitor on the anti-fungal effect of the cyclic peptide [3]: enhanced |
| N=C(N)NCCC[C@@H]1NC(=O)[C@H](CCCNC(=N)N)NC(=O)[C@H](CCCNC(=N)N)NC(=O)[C@H](CCCNC(=N)N)NC(=O)[C@H](CCCNC(=N)N)NC1=O [NP201, cyclic-5R] (cyclo(RRRRR)) | – | – | – | – | 1000 (≈ 1280 µM) | 500 (≈ 640 µM) | – |
| N=C(N)NCCC[C@@H]1NC(=O)[C@H](CCCNC(=N)N)NC(=O)[C@H](CCCNC(=N)N)NC(=O)[C@H](CCCNC(=N)N)NC(=O)[C@H](CCCNC(=N)N)NC(=O)[C@H](CCCNC(=N)N)NC(=O)[C@H](CCCNC(=N)N)NC(=O)[C@H](CCCNC(=N)N)NC(=O)[C@H](CCCNC(=N)N)NC(=O)[C@H](CCCNC(=N)N)NC(=O)[C@H](CCCNC(=N)N)NC1=O [NP202, cyclic 11 R] | – | – | – | – | 15.6 (≈ 9.08 µM) | 250 (≈ 146 µM) | – |
| N=C(N)NCCC[C@@H]1NC(=O)[C@H](CCCNC(=N)N)NC(=O)[C@H](CCCNC(=N)N)NC(=O)[C@H](CCCNC(=N)N)NC(=O)[C@H](CCCNC(=N)N)NC(=O)[C@H](CCCNC(=N)N)NC(=O)[C@H](CCCNC(=N)N)NC(=O)[C@H](CCCNC(=N)N)NC(=O)[C@H](CCCNC(=N)N)NC(=O)[C@H](CCCNC(=N)N)NC(=O)[C@H](CCCNC(=N)N)NC(=O)[C@H](CCCNC(=N)N)NC(=O)[C@H](CCCNC(=N)N)NC(=O)[C@H](CCCNC(=N)N)NC(=O)[C@H](CCCNC(=N)N)NC1=O [NP203, cyclic 15R] | – | – | – | – | 3.9 (≈ 1.66 µM) | 62.5 (≈ 26.7 µM) | – |
| N=C(N)NCCC[C@@H]1NC(=O)[C@H](CCCNC(=N)N)NC(=O)[C@H](CCCNC(=N)N)NC(=O)[C@H](CCCNC(=N)N)NC(=O)[C@H](CCCNC(=N)N)NC(=O)[C@H](CCCNC(=N)N)NC(=O)[C@H](CCCNC(=N)N)NC1=O [NP213, cyclic R-R-R-R-R-R-R] | – | – | – | – | 500 (≈ 457 µM) | 1000 (≈ 915 µM) | antifungal activity in Roehm lacquer 1 compared to NP213 in 50% (v/v) PEG4000 (T. rubrum NCPF0118 [4]; 5% and 10% (w/v) NP213, metabolic activity up to 168 h, FIG. 1): lower; antifungal activity in Roehm lacquer 2 compared to NP213 in 50% (v/v) PEG4000 (T. rubrum NCPF0118 [4]; 5% and 10% (w/v) NP213, metabolic activity up to 168 h, FIG. 2): lower; antifungal activity in Roehm lacquer 3 compared to NP213 in 50% (v/v) PEG4000 (T. rubrum NCPF0118 [4]; 5% and 10% (w/v) NP213, metabolic activity up to 168 h, FIG. 3): lower; antifungal activity in Roehm lacquer 4 compared to NP213 in 50% (v/v) PEG4000 (T. rubrum NCPF0118 [4]; 5% and 10% (w/v) NP213, metabolic activity up to 168 h, FIG. 4): lower; antifungal activity in Roehm lacquer 5 compared to NP213 in 50% (v/v) PEG4000 (T. rubrum NCPF0118 [4]; 5% and 10% (w/v) NP213, metabolic activity up to 168 h, FIG. 5): lower; antifungal activity in Anacor lacquer C compared to NP213 in 50% (v/v) PEG4000 (T. rubrum NCPF0118 [4]; 5% and 10% (w/v) NP213, metabolic activity up to 168 h, FIG. 6): lower; antifungal activity in 2d lacquer compared to NP213 in 50% (v/v) PEG4000 (T. rubrum NCPF0118 [4]; 10% (w/v) NP213 in 2d lacquer, metabolic activity up to 168 h, FIG. 7): lower; efficacy in the known nail lacquers (T. rubrum NCPF0118 [4]; lacquers manufactured by Anacor and Roehm): not effective; time from beginning treatment until antifungal effects are seen [5]: ≤ 11 days; MIC (mg/L) T.interdigitale NCPF0335 [1]: 500 mg/L (≈ 457 µM) |
| O=S(=O)(F)Cc1ccccc1 [PMSF, phenylmethylsulfonyl fluoride] | no effect on the growth | did not inhibit growth | no effect on the growth | did not inhibit growth | – | – | – |
| CC(C)CC(=O)N[C@H](C(=O)N[C@H](C(=O)N[C@@H](CC(C)C)[C@@H](O)CC(=O)N[C@@H](C)C(=O)N[C@@H](CC(C)C)[C@@H](O)CC(=O)O)C(C)C)C(C)C [Pepstatin A] (Isovaleryl-VV[Sta]A[Sta]-OH) | no effect on the growth | did not inhibit growth | no effect on the growth | did not inhibit growth | – | – | – |

Source: patent publication US20230301895A1, “NAIL FORMULATIONS AND TREATMENT REGIMES” (NOVABIOTICS LIMITED, priority 2020, published 2023)
